Experimental data from patent US20120121591A1 (priority 2009, published 2012).

Key:
Assay type in all cases: cell-based
[1] = target: hKv1.3 (Homo sapiens, UniProt P22001); test: cell-based; conditions: Kv1.3 (IWQ) IC50 (nM, Avg)
[2] = system: IL-2 secretion from T cells in human whole blood; conditions: read-out: WB (IL-2) IC50 (nM, Avg)
[3] = system: IFN-g secretion from T cells in human whole blood; conditions: read-out: WB (IFNg) IC50 (nM, Avg)

hKv1.3, sequence (P22001 whole entry): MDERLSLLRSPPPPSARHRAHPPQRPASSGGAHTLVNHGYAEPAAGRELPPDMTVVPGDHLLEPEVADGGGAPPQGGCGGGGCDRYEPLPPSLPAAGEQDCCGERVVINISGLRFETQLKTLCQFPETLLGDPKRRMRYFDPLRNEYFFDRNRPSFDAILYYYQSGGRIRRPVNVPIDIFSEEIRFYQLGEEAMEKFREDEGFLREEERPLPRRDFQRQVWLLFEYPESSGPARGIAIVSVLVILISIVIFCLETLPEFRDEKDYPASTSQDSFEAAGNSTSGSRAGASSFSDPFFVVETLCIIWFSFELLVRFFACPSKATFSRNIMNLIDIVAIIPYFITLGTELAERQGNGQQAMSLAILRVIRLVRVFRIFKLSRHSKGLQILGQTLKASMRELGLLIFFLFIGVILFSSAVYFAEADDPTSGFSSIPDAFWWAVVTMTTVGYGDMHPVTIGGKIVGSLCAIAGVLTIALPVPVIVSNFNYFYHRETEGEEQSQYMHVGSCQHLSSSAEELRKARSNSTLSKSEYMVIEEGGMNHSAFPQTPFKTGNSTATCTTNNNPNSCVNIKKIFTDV

Structure (SMILES)	IC50 [1] [nM]	IC50 [2] [nM]	IC50 [3] [nM]
CC[C@H](C)[C@@H]1NC(=O)[C@@H](NC(=O)[C@H](CO)NC(=O)[C@@H](N)CCCNC(=N)N)CSSC[C@@H](C(=O)O)NC(=O)[C@H]([C@@H](C)O)NC(=O)CNC(=O)[C@@H]2CSSC[C@@H]3NC(=O)[C@H](CCC(N)=O)NC(=O)[C@H](Cc4ccccc4)NC(=O)[C@H](C)NC(=O)[C@H]([C@@H](C)O)NC(=O)[C@H](CSSC[C@H](NC(=O)[C@H](Cc4ccccc4)NC(=O)[C@H](CO)NC(=O)[C@H](CC(C)C)NC(=O)[C@H](CCCNC(=N)N)NC(=O)[C@H](Cc4ccc(O)cc4)NC(=O)[C@H](CCCCN)NC(=O)[C@H](CCSC)NC(=O)[C@H](CO)NC(=O)[C@H](Cc4c[nH]cn4)NC(=O)[C@H](CCCCN)NC3=O)C(=O)N[C@@H](CCCNC(=N)N)C(=O)N[C@@H](CCCCN)C(=O)N[C@@H](CCCCN)C(=O)N2)NC(=O)[C@H](CCCNC(=N)N)NC(=O)[C@H](CO)NC(=O)[C@H](CCCCN)NC(=O)[C@@H]2CCCN2C(=O)[C@H]([C@@H](C)CC)NC(=O)[C@H]([C@@H](C)O)NC(=O)[C@H](CC(=O)O)NC1=O [[Lys31]ShK]	1.42	5.98	27.9
CC[C@H](C)[C@@H]1NC(=O)[C@@H](NC(=O)[C@H](CO)NC(=O)[C@@H](N)CCCNC(=N)N)CSSC[C@@H](C(N)=O)NC(=O)[C@H]([C@@H](C)O)NC(=O)CNC(=O)[C@@H]2CSSC[C@@H]3NC(=O)[C@H](CCCCN)NC(=O)[C@H](Cc4ccccc4)NC(=O)[C@H](C)NC(=O)[C@H]([C@@H](C)O)NC(=O)[C@H](CSSC[C@H](NC(=O)[C@H](Cc4ccccc4)NC(=O)[C@H](Cc4cccc5ccccc45)NC(=O)[C@H](CC(C)C)NC(=O)[C@H](CCCNC(=N)N)NC(=O)[C@H](Cc4ccc(O)cc4)NC(=O)[C@H](CCCCN)NC(=O)[C@H](CCSC)NC(=O)[C@H](CO)NC(=O)[C@H](Cc4c[nH]cn4)NC(=O)[C@H](CCCCN)NC3=O)C(=O)N[C@@H](CCCCN)C(=O)N[C@@H](CCCCN)C(=O)N[C@@H]([C@@H](C)O)C(=O)N2)NC(=O)[C@H](CCCNC(=N)N)NC(=O)[C@H](CO)NC(=O)[C@H](CCCCN)NC(=O)[C@@H]2CCCN2C(=O)[C@H]([C@@H](C)CC)NC(=O)[C@H]([C@@H](C)O)NC(=O)[C@H](CC(=O)O)NC1=O [[Lys16,29; 1-Nal26]ShK-amide]	0.341	0.808	1.98
CC[C@H](C)[C@@H]1NC(=O)[C@H]([C@@H](C)O)NC(=O)[C@H](CC(=O)O)NC(=O)[C@H](CCC(=O)O)NC(=O)[C@@H](NC(=O)[C@H](CO)NC(=O)[C@@H](N)CCCNC(=N)N)CSSC[C@@H](C(=O)O)NC(=O)[C@H]([C@@H](C)O)NC(=O)CNC(=O)[C@@H]2CSSC[C@@H]3NC(=O)[C@H](CCCCN)NC(=O)[C@H](C)NC(=O)[C@H](C)NC(=O)[C@H]([C@@H](C)O)NC(=O)[C@H](CSSC[C@H](NC(=O)[C@H](Cc4ccccc4)NC(=O)[C@H](CO)NC(=O)[C@H](CC(C)C)NC(=O)[C@H](CCCNC(=N)N)NC(=O)[C@H](Cc4ccc(O)cc4)NC(=O)[C@H](CCCCN)NC(=O)[C@H](CCSC)NC(=O)[C@H](CO)NC(=O)[C@H](Cc4c[nH]cn4)NC(=O)[C@H](CCCCN)NC3=O)C(=O)N[C@@H](CCCNC(=N)N)C(=O)N[C@@H](CCCNC(=N)N)C(=O)N[C@@H]([C@@H](C)O)C(=O)N2)NC(=O)[C@H](CCCNC(=N)N)NC(=O)[C@H](CCCNC(=N)N)NC(=O)[C@H](CCCCN)NC(=O)[C@@H]2CCCN2C1=O [[Glu4,Arg10,30,A1a15,Lys16]ShK]	0.14	0.209	0.305
CCC[C@@H]1NC(=O)[C@H](CO)NC(=O)[C@H](Cc2c[nH]cn2)NC(=O)[C@H](CCCCN)NC(=O)[C@@H]2CSSC[C@@H]3NC(=O)[C@H]([C@@H](C)O)NC(=O)[C@H](CCCCN)NC(=O)[C@H](CCCNC(=N)N)NC(=O)[C@H](CSSC[C@H](NC(=O)[C@H](CCCNC(=N)N)NC(=O)[C@H](CO)NC(=O)[C@H](CCCCN)NC(=O)[C@@H]4CCCN4C(=O)[C@H]([C@@H](C)CC)NC(=O)[C@H]([C@@H](C)O)NC(=O)[C@H](CC(=O)O)NC(=O)[C@H]([C@@H](C)CC)NC(=O)[C@@H](NC(=O)[C@H](CO)NC(=O)[C@@H](N)CCCNC(=N)N)CSSC[C@@H](C(=O)NC(C)(C)C(N)=O)NC(=O)[C@H]([C@@H](C)O)NC(=O)CNC3=O)C(=O)N[C@@H]([C@@H](C)O)C(=O)N[C@@H](C)C(=O)N[C@@H](Cc3ccccc3)C(=O)N[C@@H](CCCCN)C(=O)N2)NC(=O)[C@H](Cc2ccccc2)NC(=O)[C@H](CO)NC(=O)[C@H](CC(C)C)NC(=O)[C@H](CCCNC(=N)N)NC(=O)[C@H](Cc2ccc(O)cc2)NC(=O)[C@H](CCCCN)NC1=O [[Lys16,Nva21]ShK-Aib-amide]	0.03	0.483	0.722
CC[C@H](C)[C@@H]1NC(=O)[C@@H](NC(=O)[C@H](CO)NC(=O)[C@@H](N)CCCNC(=N)N)CSSC[C@@H](C(N)=O)NC(=O)[C@H]([C@@H](C)O)NC(=O)CNC(=O)[C@@H]2CSSC[C@@H]3NC(=O)[C@H](CCCCN)NC(=O)[C@H](Cc4ccccc4)NC(=O)[C@H](C)NC(=O)[C@H]([C@@H](C)O)NC(=O)[C@H](CSSC[C@H](NC(=O)[C@H](Cc4ccccc4)NC(=O)[C@H](CO)NC(=O)[C@H](CC(C)C)NC(=O)[C@H](CCCNC(=N)N)NC(=O)[C@H](Cc4ccc(O)cc4)NC(=O)[C@H](CCCCN)NC(=O)[C@H](CCSC)NC(=O)[C@H](CO)NC(=O)[C@H](Cc4c[nH]cn4)NC(=O)[C@H](CCCNC(=N)N)NC3=O)C(=O)N[C@@H](CCCCN)C(=O)N[C@@H](CCCNC(=N)N)C(=O)N[C@@H]([C@@H](C)O)C(=O)N2)NC(=O)[C@H](CCCNC(=N)N)NC(=O)[C@H](CO)NC(=O)[C@H](CCCCN)NC(=O)[C@@H]2CCCN2C(=O)[C@H]([C@@H](C)CC)NC(=O)[C@H]([C@@H](C)O)NC(=O)[C@H](CC(=O)O)NC1=O [[Lys16, 29;Arg18,30]ShK-amide]	0.401	0.26	0.242
CCCC[C@@H]1NC(=O)[C@H](CO)NC(=O)[C@H](Cc2c[nH]cn2)NC(=O)[C@H](CCCCN)NC(=O)[C@@H]2CSSC[C@@H]3NC(=O)[C@H]([C@@H](C)O)NC(=O)[C@H](CCCCN)NC(=O)[C@H](CCCNC(=N)N)NC(=O)[C@H](CSSC[C@H](NC(=O)[C@H](CCCNC(=N)N)NC(=O)[C@H](CO)NC(=O)[C@H](CCCCN)NC(=O)[C@@H]4CCCN4C(=O)[C@H]([C@@H](C)CC)NC(=O)[C@H]([C@@H](C)O)NC(=O)[C@H](CC(=O)O)NC(=O)[C@H]([C@@H](C)CC)NC(=O)[C@@H](NC(=O)[C@H](CO)NC(=O)[C@@H](N)CCCNC(=N)N)CSSC[C@@H](C(N)=O)NC(=O)[C@H]([C@@H](C)O)NC(=O)CNC3=O)C(=O)N[C@@H]([C@@H](C)O)C(=O)N[C@@H](C)C(=O)N[C@@H](Cc3ccccc3)C(=O)N[C@@H](CCC(N)=O)C(=O)N2)NC(=O)[C@H](Cc2ccccc2)NC(=O)[C@H](CO)NC(=O)[C@H](CC(C)C)NC(=O)[C@H](CCCNC(=N)N)NC(=O)[C@H](Cc2ccc(O)cc2)NC(=O)[C@H](CCCCN)NC1=O [[Nle21]ShK-amide]	0.04	0.325	1.13
CC[C@H](C)[C@@H]1NC(=O)[C@@H](NC(=O)[C@H](CO)NC(=O)[C@@H](N)CCCNC(=N)N)CSSC[C@@H](C(=O)O)NC(=O)[C@H]([C@@H](C)O)NC(=O)CNC(=O)[C@@H]2CSSC[C@@H]3NC(=O)[C@H](CCC(N)=O)NC(=O)[C@H](Cc4ccccc4)NC(=O)[C@H](C)NC(=O)[C@H]([C@@H](C)O)NC(=O)[C@H](CSSC[C@H](NC(=O)[C@H](Cc4ccccc4)NC(=O)[C@H](CO)NC(=O)[C@H](CC(C)C)NC(=O)[C@H](CCCNC(=N)N)NC(=O)[C@H](Cc4ccc(O)cc4)NC(=O)[C@H](CCCCN)NC(=O)[C@H](Cc4cccc5ccccc45)NC(=O)[C@H](CO)NC(=O)[C@H](Cc4c[nH]cn4)NC(=O)[C@H](CCCCN)NC3=O)C(=O)N[C@@H](CCCNC(=N)N)C(=O)N[C@@H](CCCCN)C(=O)N[C@@H]([C@@H](C)O)C(=O)N2)NC(=O)[C@H](CCCNC(=N)N)NC(=O)[C@H](CO)NC(=O)[C@H](CCCCN)NC(=O)[C@@H]2CCCN2C(=O)[C@H]([C@@H](C)CC)NC(=O)[C@H]([C@@H](C)O)NC(=O)[C@H](CC(=O)O)NC1=O [[1-Nal21]ShK]	0.669	6.59	8.13
CCCC[C@@H]1NC(=O)[C@H](CO)NC(=O)[C@H](Cc2c[nH]cn2)NC(=O)[C@H](CCCCN)NC(=O)[C@@H]2CSSC[C@@H]3NC(=O)[C@H]([C@@H](C)O)NC(=O)[C@H](CCCCN)NC(=O)[C@H](CCCNC(=N)N)NC(=O)[C@H](CSSC[C@H](NC(=O)[C@H](CCCNC(=N)N)NC(=O)[C@H](CO)NC(=O)[C@H](CCCCN)NC(=O)[C@@H]4CCCN4C(=O)[C@H]([C@@H](C)CC)NC(=O)[C@H]([C@@H](C)O)NC(=O)[C@H](CC(=O)O)NC(=O)[C@H]([C@@H](C)CC)NC(=O)[C@@H](NC(=O)[C@H](CO)NC(=O)[C@@H](N)CCCNC(=N)N)CSSC[C@@H](C(=O)N[C@@H](CCC(=O)O)C(=O)O)NC(=O)[C@H]([C@@H](C)O)NC(=O)CNC3=O)C(=O)N[C@@H]([C@@H](C)O)C(=O)N[C@@H](C)C(=O)N[C@@H](Cc3ccccc3)C(=O)N[C@@H](CCCCN)C(=O)N2)NC(=O)[C@H](Cc2ccccc2)NC(=O)[C@H](CO)NC(=O)[C@H](CC(C)C)NC(=O)[C@H](CCCNC(=N)N)NC(=O)[C@H](Cc2ccc(O)cc2)NC(=O)[C@H](CCCCN)NC1=O [[Lys16,N1e21]ShK-Glu]	22.5	0.386	0.621
